The source of these data is patent publication US8101761B2, “(E)-N-{3-[1-(8-fluoro-11H-10-OXA-1-AZA-dibenzo [A,D] cyclohepten-5ylidene)-propyl]-phenyl}-methanesulfonamide as glucocorticoid receptor modulator for the treatment of rheumatoid arthritis” (Eli Lilly and Company, priority 2008, dated 2012).

Usually Ki stands for a dissociation constant, usually derived from enzyme kinetics or from competition with a known ligand.

This assay concerns the target T1, human AR (androgen receptor) (Homo sapiens, UniProt P10275).
T1 construct: expressed in transfected cells; host or cells: HEK293 (293-AR lysate)
T1 sequence (P10275 1-920): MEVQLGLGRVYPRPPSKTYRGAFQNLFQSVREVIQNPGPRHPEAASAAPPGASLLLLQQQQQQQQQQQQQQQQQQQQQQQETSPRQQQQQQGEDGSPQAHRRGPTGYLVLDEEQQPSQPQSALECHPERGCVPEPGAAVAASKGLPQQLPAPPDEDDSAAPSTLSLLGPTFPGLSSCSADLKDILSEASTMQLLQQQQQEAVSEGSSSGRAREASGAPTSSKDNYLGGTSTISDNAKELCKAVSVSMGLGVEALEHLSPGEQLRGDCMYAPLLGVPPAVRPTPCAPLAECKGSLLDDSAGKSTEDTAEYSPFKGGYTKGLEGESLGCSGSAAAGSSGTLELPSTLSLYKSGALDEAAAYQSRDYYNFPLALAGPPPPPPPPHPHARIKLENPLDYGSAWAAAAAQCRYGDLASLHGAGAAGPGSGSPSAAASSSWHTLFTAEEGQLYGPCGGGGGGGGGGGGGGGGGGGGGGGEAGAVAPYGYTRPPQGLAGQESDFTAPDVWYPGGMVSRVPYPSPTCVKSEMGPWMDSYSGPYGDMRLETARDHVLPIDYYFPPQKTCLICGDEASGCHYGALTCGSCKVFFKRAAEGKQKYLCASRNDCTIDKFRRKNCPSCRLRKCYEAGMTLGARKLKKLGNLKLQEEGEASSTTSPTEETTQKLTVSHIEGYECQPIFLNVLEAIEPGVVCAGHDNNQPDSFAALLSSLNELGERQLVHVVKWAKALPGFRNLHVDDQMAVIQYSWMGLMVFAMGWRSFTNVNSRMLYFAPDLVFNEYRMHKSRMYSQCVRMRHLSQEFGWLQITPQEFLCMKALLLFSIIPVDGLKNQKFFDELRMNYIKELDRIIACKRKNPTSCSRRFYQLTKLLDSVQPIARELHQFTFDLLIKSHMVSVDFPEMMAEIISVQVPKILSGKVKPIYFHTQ
Description: Nuclear hormone receptor competition binding assay, AR. The note with it: HEK293 lysate overexpressing human AR, [3H]-methyltrienolone; mean of n=7. As to the method:
Cell lysates from human embryonic kidney HEK293 cells overexpressing human GR (glucocorticoid receptor), AR (androgen receptor), MR (mineralocorticoid receptor), or PR (progesterone receptor) are used for receptor-ligand competition binding assays to determine Ki values.
Briefly, steroid receptor competition binding assays are run in a buffer containing 20 mM Hepes buffer (pH=7.6), 0.2 mM EDTA, 75 mM NaCl, 1.5 mM MgCl2, 20% glycerol, 20 mM sodium molybdate, 0.2 mM DTT (dithiothreitol), 20 μg/ml aprotinin and 20 μg/ml leupeptin. Typically, steroid receptor binding assays include radio-labeled ligands, such as 0.3 nM [^3H]-dexamethasone for GR binding, 0.36 nM [^3H]-methyltrienolone for AR binding, 0.25 nM [^3H]-aldosterone for MR binding, and 0.29 nM [^3H]-methyltrienolone for PR binding, and either 20 μg 293-GR lysate, 22 μg 293-AR lysate, 20 μg 293-MR lysate or 40 μg 293-PR lysate per well. Assays are typically run in 96-well format. Competing test compounds are added at various concentrations ranging from about 0.01 nM to 10 μM. Non-specific binding is determined in the presence of 500 nM dexamethasone for GR binding, 500 nM aldosterone for MR binding, or 500 nM methyltrienolone for AR and PR binding. […] After an incubation of 2 hours, plates are read in a Wallac Microbeta counter. […]

For `CC/C(=C1\c2ccc(F)cc2OCc2ncccc21)c1cccc(NS(C)(=O)=O)c1` [Compound (I), (E)-N-{3-[1-(8-Fluoro-11H-10-oxa-1-aza-dibenzo[a,d]cyclohepten-5-ylidene)-propyl]-phenyl}-methanesulfonamide], the Ki was about 6.7 nM.
